Source: patent US8450301B2, “Piperazine compounds with a herbicidal action” (BASF SE, priority 2006, dated 2013)

Legend:
Assay type in all cases: in vivo
[1] = test system: Echinochloa crus galli (ECHCG); assay: greenhouse experiment, pre-emergence treatment; conditions: application rate 3 kg/ha, scale 0 to 100
Text: (§1) The culture containers used were plastic flowerpots containing loamy sand with approximately 3.0% of humus as the substrate. The seeds of the test plants were sown separately for each species.
(§2) For the pre-emergence treatment, the active ingredients, which had been suspended or emulsified in water, were applied directly after sowing by means of finely distributing nozzles. The containers were irrigated gently to promote germination and growth and subsequently covered with transparent plastic hoods until the plants had rooted. This cover caused uniform germination of the test plants, unless this has been impaired by the active ingredients.
(§3) Depending on the species, the plants were kept at 10-25° C. or 20-35° C. The test period extended over 2 to 4 weeks. During this time, the plants were tended, and their response to the individual treatments was evaluated.
(§4) Evaluation was carried out using a scale from 0 to 100. 100 means no emergence of the plants, or complete destruction of at least the aerial moieties, and 0 means no damage, or normal course of growth. A good herbicidal activity is given at values of at least 70 and a very good herbicidal activity is given at values of at least 85.

Setaria faberi (SETFA) [2] = assay: greenhouse experiment, post-emergence treatment; conditions: application rate 3 kg/ha, scale 0 to 100
Text: as §1
(§5) For the post-emergence treatment, the test plants were first grown to a height of 3 to 15 cm, depending on the plant habit, and only then treated with the active ingredients which had been suspended or emulsified in water. For this purpose, the test plants were either sown directly and grown in the same containers, or they were first grown separately as seedlings and transplanted into the test containers a few days prior to treatment.
as §3, §4

SETIT = assay: greenhouse experiment, pre-emergence treatment; conditions: application rate 3 kg/ha, scale 0 to 100
Text: as §1, §2, §3, §4

Setaria faberi (SETFA) [3] = assay: greenhouse experiment, pre-emergence treatment; conditions: application rate 3 kg/ha, scale 0 to 100
Text: as §1, §2, §3, §4

Avena fatua (AVEFA) = assay: greenhouse experiment, post-emergence treatment; conditions: application rate 3 kg/ha, scale 0 to 100
Text: as §1, §5, §3, §4

[4] = test system: Alopecurus myosuroides (ALOMY); assay: greenhouse experiment, post-emergence treatment; conditions: application rate 3 kg/ha, scale 0 to 100
Text: as §1, §5, §3, §4

[5] = test system: Amaranthus retroflexus (AMARE); assay: greenhouse experiment, pre-emergence treatment; conditions: application rate 0.5 kg/ha, scale 0 to 100
Text: as §1, §2, §3, §4

[6] = test system: Apera spica-venti (APESV); assay: greenhouse experiment, pre-emergence treatment; conditions: application rate 0.5 kg/ha, scale 0 to 100
Text: as §1, §2, §3, §4

Row | SMILES | herbicidal pre-emergence activity against ECHCG [1] | herbicidal post-emergence activity against SETFA (Setaria faberi (SETFA) [2]) | herbicidal pre-emergence activity against SETIT (SETIT) | other results
1 | CC(C)=CCN1C(=O)C(Cc2ccccc2[N+](=O)[O-])N(C)C(=O)C1Cc1ccccc1 (single isomer, unassigned) [A.2.64] | good to very good | good to very good |  | 
2 | CC(C)OC(=O)CN1C(=O)C(Cc2ccccc2[N+](=O)[O-])N(C)C(=O)C1Cc1ccccc1 (single isomer, unassigned) [A.2.65] |  | good to very good |  | 
3 | CN1C(=O)C(C(OS(C)(=O)=O)c2ccccc2[N+](=O)[O-])N(C)C(=O)C1Cc1ccccc1 (single isomer, unassigned) [A.2.265] | good to very good | good to very good | good to very good | 
4 | CN1C(=O)C(C(OS(C)(=O)=O)c2ccccc2[N+](=O)[O-])N(C)C(=O)C1Cc1ccccc1 (single isomer, unassigned) [A.2.267] | good to very good | good to very good | good to very good | 
5 | CN1C(=O)C(C(O[Si](C)(C)C)c2ccccc2[N+](=O)[O-])N(C)C(=O)C1Cc1ccccc1 (single isomer, unassigned) [A.2.271] |  |  | good to very good | 
6 | CC(Oc1ccc(CC2C(=O)N(C)C(Cc3ccccc3)C(=O)N2C)c([N+](=O)[O-])c1)C(=O)O (centres unmarked) [A.1.13] |  |  | good to very good | 
7 | CN1C(=O)C(Cc2ccccc2C#N)N(C)C(=O)C1Cc1ccccc1 (centres unmarked) [A.2.81] |  |  |  | herbicidal pre-emergence activity against SETFA (Setaria faberi (SETFA) [3]): very good (a very good herbicidal activity is given at values of at least 85)
8 | CN1C(=O)C(Cc2ccccc2NS(C)(=O)=O)N(C)C(=O)C1Cc1ccccc1 (centres unmarked) [A.2.105] | good to very good |  |  | herbicidal post-emergence activity against AVEFA (Avena fatua (AVEFA)): very good (a very good herbicidal activity is given at values of at least 85); herbicidal post-emergence activity against ALOMY [4]: very good (a very good herbicidal activity is given at values of at least 85)
9 | CN1C(=O)C(Cc2c(Br)cccc2[N+](=O)[O-])N(C)C(=O)C1Cc1ccccc1 (centres unmarked) [A.2.133] | good to very good | good to very good |  | 
10 | C#Cc1ccccc1CC1C(=O)N(C)C(Cc2ccccc2)C(=O)N1C (centres unmarked) [A.2.135] | good to very good | good to very good | good to very good | 
11 | CC(=O)OC(c1ccccc1[N+](=O)[O-])C1C(=O)N(C)C(Cc2ccccc2)C(=O)N1C (centres unmarked) [A.2.251] |  | good to very good |  | 
12 | CN1C(=O)C(C(OCc2ccccc2)c2ccccc2[N+](=O)[O-])N(C)C(=O)C1Cc1ccccc1 (centres unmarked) [A.2.255] |  | good to very good |  | 
13 | Cc1cc(-c2ccccc2CC2C(=O)N(C)C(Cc3ccccc3)C(=O)N2C)on1 (centres unmarked) [A.2.273] | good to very good | good to very good | good to very good | 
14 | C=Cc1ccccc1CC1C(=O)N(C)C(Cc2ccccc2)C(=O)N1C (centres unmarked) [A.2.274] | good to very good | good to very good |  | 
15 | CCS(=O)(=O)OC(c1ccccc1[N+](=O)[O-])C1C(=O)N(C)C(Cc2ccccc2)C(=O)N1C (centres unmarked) [A.2.275] | good to very good | good to very good |  | 
16 | COS(=O)(=O)C(c1cccnc1Br)C1C(=O)N(C)C(Cc2ccccc2)C(=O)N1C (centres unmarked) [A.5.16, methyl (5-benzyl-1,4-dimethyl-3,6-dioxopiperazin-2-yl)-(2-bromopyridin-3-yl)methanesulfonate] |  |  | good to very good | 
17 | COS(=O)(=O)C(c1ccccc1[N+](=O)[O-])C1C(=O)N(C)C(Cc2cccs2)C(=O)N1C (centres unmarked) [A.5.17, methyl [1,4-dimethyl-3,6-dioxo-5-(thiophen-2-ylmethyl)piperazin-2-yl]-(2-nitrophenyl) methanesulfonate] |  |  |  | herbicidal pre-emergence activity against AMARE [5]: very good (a very good herbicidal activity is given at values of at least 85); herbicidal pre-emergence activity against APESV [6]: good (A good herbicidal activity is given at values of at least 70)
